Source: US20220378706A1, “PHARMACEUTICAL COMPOSITION COMPRISING PDE9 INHIBITOR” (Eisai R&D Management Co., Ltd., priority 2017, published 2022)

Key:
Format in all cases: in vivo, human
[1] = Single dose clinical study: safety assessments (adverse events); conditions: for incidence of any TEAEs: Part B 100 mg Cohort
Excerpt: Safety assessments consisted of monitoring and recording all adverse events (AEs) and serious adverse events (SAEs); laboratory evaluation for hematology, blood chemistry, and urine values; periodic measurement of vital signs (including orthostatic changes in blood pressure [BP] and heart rate [HR]) and electrocardiograms (ECGs); and the performance of physical examinations.
Safety data evaluated included AEs, clinical laboratory results, vital signs, and ECGs. Treatment emergent adverse events (TEAEs) were summarized by presenting the incidence of AEs for each cohort and dose group. For the laboratory, vital signs, and ECG data in all cohorts in any treatment period, the baseline was the values recorded immediately prior to dosing with study drug in that treatment period.

CSF cGMP = test: Single dose clinical study Part B: CSF cGMP pharmacodynamics; conditions: for CSF cGMP Amax Mean (SD) / CSF cGMP TAmax Median / CSF cGMP ΔAUAC(0-30 h) Mean (SD): healthy adults Part B, fasted
Experimental: After the Screening Period, subjects returned to the clinic on […] for Baseline procedures. […] Serial CSF sampling via the lumbar catheter commenced on Day 1, after an overnight fast. CSF samples were collected on Day 1 over a period of 3 hours predose. Subjects were then administered study drug, and serial CSF sampling for 30 hours postdose was performed to determine CSF cGMP and CSF Compound A concentrations. Blood samples for plasma Compound A PK were collected at the same time points as CSF sampling. Safety evaluations were also performed.
Serial CSF samples were collected from the lumbar catheter for analysis of concentrations of cyclic […] monophosphate (cGMP) at −3, −2, −1 hours, predose (0 hour), and postdose at 1, 2, 3, 4, 5, 6, 8, 10, 12, 14, 16, 18, 24, and 30 hours.
(§1) Plasma, urine and CSF concentrations of Compound A were measured using validated liquid chromatography mass spectrometry/mass spectrometry (LC MS/MS) assay methods. CSF concentrations of cGMP were measured using a validated LC-MS/MS assay method.
The primary PD measure was CSF cGMP. The following PD parameters were reported for CSF cGMP:
Plasma Compound A concentrations pooled from all cohorts of the study were subjected to population PK analysis using nonlinear mixed effects modelling. The effect of covariates, such as baseline demographics/characteristics (eg, body weight, age, gender, ethnicity, etc) on the PK of Compound A were explored. The individual posterior estimates of PK parameters were then used to generate individual PK profiles of Compound A, which were used in subsequent PK/PD analysis of the percent change from baseline in CSF cGMP concentrations.

[2] = Single dose clinical study Parts A and C: urine Compound A pharmacokinetics; conditions: for CL renal: human, po
Experimental: Urine Compound A concentrations were analyzed predose and up to 96 hours postdose.
as §1
The following PK parameters were calculated for Compound A: […]

[3] = Elderly subjects Part C, single oral 100 mg
[4] = healthy adults Part A, single oral 10 mg
[5] = healthy adults Part A, single oral 25 mg
[6] = healthy adults Part A, single oral 50 mg
[7] = healthy adults Part A, single oral 100 mg
[8] = healthy adults Part A, single oral 200 mg
[9] = healthy adults Part A, single oral 400 mg
[10] = healthy adults Part A, single oral 800 mg
[11] = healthy adults Part A, single oral 1200 mg

## COc1ncc(C)c(-c2ccc3c(c2)[nH]c(=O)c2cnn([C@H]4CCOC4)c23)c1C [Compound A, (S)-7-(2-methoxy-3,5-dimethylpyridin-4-yl)-1-(tetrahydrofuran-3-yl)-1H-pyrazolo[4,3-c]quin olin-4(5H)-one]
[1]; Part A healthy adult subjects, single oral doses 10 to 1200 mg
  tolerability: well tolerated
[1]; Part B
  TEAE back pain: 20.8%
  TEAE dizziness: 16.7%
  TEAE headache: 29.2%
  TEAE musculoskeletal stiffness: 20.8%
  TEAE nausea: 12.5%
  TEAE pain in extremity: 8.3%
  TEAE post lumbar puncture syndrome: 37.5%
  TEAE procedural nausea: 8.3%
  TEAE procedural vomiting: 8.3%
  TEAE vomiting: 20.8%
[1]; fasted state
  incidence of any TEAEs: 66.7%
[1]; fed state
  incidence of any TEAEs: 50%
[1]; Part B healthy adults with serial CSF sampling, single oral doses 50 to 400 mg
  tolerability: well tolerated
[1]; Part B, both treatment periods, all doses
  subjects with at least 1 TEAE: 83.3%
[1]; Part C healthy elderly subjects, single dose 100 mg
  tolerability: well tolerated
[1]; Part C healthy elderly, 100 mg
  subjects with at least 1 TEAE: 16.7%
[1]; Part D
  TEAE headache: 16.7%
[1]; Part D healthy Japanese adult subjects, single oral doses 25 to 400 mg
  tolerability: well tolerated
[1]; Part D, all doses
  subjects with at least 1 TEAE: 38.9%
[1]; Parts A and C
  TEAE dizziness: 5.6%
  TEAE headache: 11.6%
  TEAE increase in orthostatic heart rate response: 3.7%
  TEAE insomnia: 5.6%
  TEAE paresthesia: 3.7%
  TEAE postural orthostatic tachycardia: 5.6%
  deaths or SAEs: no deaths or SAEs
[1]; Parts A and C, all doses
  subjects with at least 1 TEAE: 42.6%
[1]; single oral doses 10 to 1200 mg, healthy adults
  maximum tolerated dose: not reached
CSF cGMP; 100 mg administered to steady state
  sustained CSF cGMP increase from baseline predicted from PK/PD modeling: approximately 200%
CSF cGMP; single oral 50 mg
  CSF cGMP Amax Mean (SD): 367 (92.6) %
  CSF cGMP TAmax Median: 7.87 h
  CSF cGMP ΔAUAC(0-30 h) Mean (SD): 117 (51.7) %
CSF cGMP; single oral 75 mg
  CSF cGMP Amax Mean (SD): 461 (86.3) %
  CSF cGMP TAmax Median: 5.87 h
  CSF cGMP ΔAUAC(0-30 h) Mean (SD): 166 (9.61) %
CSF cGMP; single oral 100 mg
  CSF cGMP Amax Mean (SD): 293 (67.8) %
  CSF cGMP TAmax Median: 5.87 h
  CSF cGMP ΔAUAC(0-30 h) Mean (SD): 87.0 (33.9) %
CSF cGMP; single oral 200 mg
  CSF cGMP Amax Mean (SD): 424 (127) %
  CSF cGMP TAmax Median: 5.37 h
  CSF cGMP ΔAUAC(0-30 h) Mean (SD): 176 (89.5) %
CSF cGMP; single oral 400 mg
  CSF cGMP Amax Mean (SD): 420 (123) %
  CSF cGMP TAmax Median: 12.9 h
  CSF cGMP ΔAUAC(0-30 h) Mean (SD): 214 (82.3) %
[2]; [3]
  Ae(0-96 h) GM: 0.228 mg
  Fe(0-96 h) GM: 0.228%
[2]; [4]
  Ae(0-96 h) GM: 0.0218 mg
  Fe(0-96 h) GM: 0.218%
[2]; [5]
  Ae(0-96 h) GM: 0.0476 mg
  Fe(0-96 h) GM: 0.190%
[2]; [6]
  Ae(0-96 h) GM: 0.104 mg
  Fe(0-96 h) GM: 0.208%
[2]; [7]
  Ae(0-96 h) GM: 0.295 mg
  Fe(0-96 h) GM: 0.295%
[2]; [8]
  Ae(0-96 h) GM: 0.177 mg
  Fe(0-96 h) GM: 0.0885%
[2]; [9]
  Ae(0-96 h) GM: 0.615 mg
  Fe(0-96 h) GM: 0.154%
[2]; [10]
  Ae(0-96 h) GM: 0.762 mg
  Fe(0-96 h) GM: 0.0953%
[2]; [11]
  Ae(0-96 h) GM: 1.18 mg
  Fe(0-96 h) GM: 0.0979%
[2]; 10 mg, healthy adults Part A, single oral 10 mg
  CL renal: 0.228 mL/min
[2]; 25 mg, healthy adults Part A, single oral 25 mg
  CL renal: 0.202 mL/min
[2]; 50 mg, healthy adults Part A, single oral 50 mg
  CL renal: 0.268 mL/min
[2]; 100 mg, Elderly subjects Part C, single oral 100 mg
  CL renal: 0.22 mL/min
[2]; 100 mg, healthy adults Part A, single oral 100 mg
  CL renal: 0.37 mL/min
[2]; 200 mg, healthy adults Part A, single oral 200 mg
  CL renal: 0.17 mL/min
[2]; 400 mg, healthy adults Part A, single oral 400 mg
  CL renal: 0.337 mL/min
[2]; 800 mg, healthy adults Part A, single oral 800 mg
  CL renal: 0.212 mL/min
[2]; 1200 mg, healthy adults Part A, single oral 1200 mg
  CL renal: 0.287 mL/min
